For 20 compounds, IC50 and Ki results are on record in patent publication US9546152B2 (MERCK SHARP & DOHME CORP., priority 2012, dated 2017).

For experiment [1], the target named is T1, human orexin-2 receptor (Homo sapiens (Human), UniProt O43614). As to the kind of experiment: FLIPR Ca2+ Flux Assay, orexin-2 receptor. It counts as cell-based. To be noted: CHO cells expressing the human orexin-2 receptor; agonist 70 pM Ala-6,12 human orexin-A; read-out: hOX2R FLIPR IC50. On the procedure:
(§1) In a typical experiment the OX1 and OX2 receptor antagonistic activity of the compounds of the present invention was determined in accordance with the following experimental method. For intracellular calcium measurements, Chinese hamster ovary (CHO) cells expressing the rat orexin-1 receptor or the human orexin-2 receptor, are grown in Iscove's modified DMEM containing 2 mM L-glutamine, […], 1% hypoxanthine-thymidine supplement, 100 U/ml penicillin, 100 μg/ml streptomycin and 10% heat-inactivated fetal calf serum (FCS). The cells are seeded at 20,000 cells/well into Becton-Dickinson black 384-well clear bottom sterile plates coated with poly-D-lysine. All reagents were from GIBCO-Invitrogen Corp. The seeded plates are incubated overnight at 37° C. and 5% CO2. Ala-6,12 human orexin-A as the agonist is prepared as a 1 mM stock solution in 1% bovine serum albumin (BSA) and diluted in assay buffer (HBSS containing 20 mM HEPES, 0.1% BSA and 2.5 mM probenecid, pH7.4) for use in the assay at a final concentration of 70 pM. Test compounds are prepared as 10 mM stock solution in DMSO, then diluted in 384-well plates, first in DMSO, then assay buffer. On the day of the assay, cells are washed 3 times with 100 μl assay buffer and then incubated for 60 min (37° C., 5% CO2) in 60 μl assay buffer containing 1 μM Fluo-4AM ester, 0.02% pluronic acid, and 1% BSA. The dye loading solution is then aspirated and cells are washed 3 times with 100 μl assay buffer. 30 μl of that same buffer is left in each well. Within the Fluorescent Imaging Plate Reader (FLIPR, Molecular Devices), test compounds are added to the plate in a volume of 25 μl, incubated for 5 min and finally 25 μl of agonist is added. Fluorescence is measured for each well at 1 second intervals for 5 minutes and the height of each fluorescence peak is compared to the height of the fluorescence peak induced by 70 pM Ala-6,12 orexin-A with buffer in place of antagonist. […] Alternatively, compound potency can be assessed by a radioligand binding assay (described in Bergman et. al. Bioorg. Med. Chem. Lett. 2008, 18, 1425-1430) in which the inhibition constant (Ki) is determined in membranes prepared from CHO cells expressing either the OX1 or OX2 receptor. The intrinsic orexin receptor antagonist activity of a compound which may be used in the present invention may be determined by these assays.
A general note: Calcium assays in cells follow changes in intracellular calcium, usually with a dye or a luminescent sensor.

Another experiment has as its target rat orexin-1 receptor (Rattus norvegicus (Rat), UniProt P56718). As to the kind of experiment: FLIPR Ca2+ Flux Assay, orexin-1 receptor. Particulars: CHO cells expressing the rat orexin-1 receptor; agonist 70 pM Ala-6,12 human orexin-A; read-out: hOX1R FLIPR IC50. It counts as cell-based. On the procedure: as §1
Experiment [2] addresses T1, human orexin-2 receptor. In words: radioligand binding assay, orexin-2 receptor. Particulars: membranes prepared from CHO cells expressing the OX2 receptor; read-out: hOX2R BIND hKi. On the procedure:
as §1

rat orexin-1 receptor, sequence (P56718 whole entry): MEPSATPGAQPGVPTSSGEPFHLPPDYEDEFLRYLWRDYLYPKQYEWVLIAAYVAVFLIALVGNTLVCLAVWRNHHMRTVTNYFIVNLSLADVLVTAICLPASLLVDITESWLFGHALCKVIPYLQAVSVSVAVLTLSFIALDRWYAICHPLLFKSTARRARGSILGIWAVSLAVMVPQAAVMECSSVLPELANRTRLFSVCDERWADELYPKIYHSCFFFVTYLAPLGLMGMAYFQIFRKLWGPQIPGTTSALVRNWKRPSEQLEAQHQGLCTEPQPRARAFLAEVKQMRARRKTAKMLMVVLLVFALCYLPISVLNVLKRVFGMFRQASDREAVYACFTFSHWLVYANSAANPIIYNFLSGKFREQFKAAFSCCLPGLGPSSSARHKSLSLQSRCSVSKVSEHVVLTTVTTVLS
T1 sequence (O43614 whole entry): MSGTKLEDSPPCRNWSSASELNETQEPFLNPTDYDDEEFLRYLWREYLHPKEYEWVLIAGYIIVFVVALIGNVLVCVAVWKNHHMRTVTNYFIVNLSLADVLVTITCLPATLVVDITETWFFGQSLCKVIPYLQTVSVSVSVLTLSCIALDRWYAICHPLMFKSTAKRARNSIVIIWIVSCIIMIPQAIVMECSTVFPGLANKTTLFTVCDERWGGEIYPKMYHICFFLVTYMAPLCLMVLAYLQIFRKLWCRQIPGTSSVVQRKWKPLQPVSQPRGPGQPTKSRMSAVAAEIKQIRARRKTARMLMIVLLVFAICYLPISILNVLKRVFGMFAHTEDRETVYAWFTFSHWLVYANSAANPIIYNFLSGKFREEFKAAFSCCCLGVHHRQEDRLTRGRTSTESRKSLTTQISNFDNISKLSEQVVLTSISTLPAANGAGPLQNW

For the compound `Cc1c(C#N)ccnc1O[C@@H]1CC[C@@H](C)N(C(=O)c2cc(F)ccc2-c2cscn2)C1` [Example 26, 2-{[(3R,6R)-1-{[5-fluoro-2-(1,3-thiazol-4-yl)phenyl]carbonyl}-6-methylpiperidin-3-yl]oxy}-3-methylpyridine-4-carbonitrile], the figures for the IC50 on human orexin-2 receptor [1] and at rat orexin-1 receptor were 10 nM and 967 nM, respectively. Further, at human orexin-2 receptor [2], the Ki is 0.6 nM.

With `Cc1c(C#N)ccnc1O[C@@H]1CC[C@@H](C)N(C(=O)c2ccsc2-n2nccn2)C1` [Example 39, 3-methyl-2-{[(3R,6R)-6-methyl-1-{[2-(2H-1,2,3-triazol-2-yl)thiophen-3-yl]carbonyl}piperidin-3-yl]oxy}pyridine-4-carbonitrile], the figures for the IC50 at human orexin-2 receptor [1] and on rat orexin-1 receptor were 9 nM and 1510 nM, respectively. On human orexin-2 receptor [2], the Ki amounted to 0.7 nM.

Take `Cc1c(C#N)ccnc1O[C@@H]1CC[C@@H](C)N(C(=O)c2cc(Cl)ccc2-n2nccn2)C1` [Example 3, 2-{[(3R,6R)-1-{[5-chloro-2-(2H-1,2,3-triazol-2-yl)phenyl]carbonyl}-6-methylpiperidin-3-yl]oxy}-3-methylpyridine-4-carbonitrile]: the IC50 – broadly, the concentration needed to halve the response being measured – at human orexin-2 receptor [1] worked out at 128 nM; on rat orexin-1 receptor, 4730 nM. On human orexin-2 receptor [2], the Ki is 11.7 nM.

With `Cc1ccc(C(=O)N2C[C@H](Oc3nccc(C#N)c3C)CC[C@H]2C)c(C2CC2)c1` [Example 51, 2-({(3R,6R)-1-[(2-cyclopropyl-4-methylphenyl)carbonyl]-6-methylpiperidin-3-yl}oxy)-3-methylpyridine-4-carbonitrile], the IC50 was found to be 21 nM at human orexin-2 receptor [1] and 2100 nM on rat orexin-1 receptor. The Ki at human orexin-2 receptor [2] came to 0.6 nM.

Turning to `CCc1ccccc1C(=O)N1C[C@H](Oc2nccc(C#N)c2C)CC[C@H]1C` [Example 59, 2-({(3R,6R)-1-[(2-ethylphenyl)carbonyl]-6-methylpiperidin-3-yl}oxy)-3-methylpyridine-4-carbonitrile], the IC50 was 31 nM on human orexin-2 receptor [1] and > 10000 nM on rat orexin-1 receptor. Also, on human orexin-2 receptor [2], the Ki is 3.7 nM.

For the compound `Cc1c(C#N)ccnc1O[C@@H]1CC[C@@H](C)N(C(=O)c2ccc(F)cc2-c2nccs2)C1` [Example 34, 2-{[(3R,6R)-1-{[4-fluoro-2-(1,3-thiazol-2-yl)phenyl]carbonyl}-6-methylpiperidin-3-yl]oxy}-3-methylpyridine-4-carbonitrile], the IC50 on human orexin-2 receptor [1] is 9 nM; on rat orexin-1 receptor, 702 nM. Also, the Ki at human orexin-2 receptor [2] was 0.2 nM.

Turning to `COc1ccc(C(=O)N2C[C@H](Oc3nccc(C#N)c3C)CC[C@H]2C)c(-c2ccnn2C)n1` [Example 79, 2-{[(3R,6R)-1-{[6-methoxy-2-(1-methyl-1H-pyrazol-5-yl)pyridin-3-yl]carbonyl}-6-methylpiperidin-3-yl]oxy}-3-methylpyridine-4-carbonitrile], the IC50 at human orexin-2 receptor [1] came out at 85.6 nM; at rat orexin-1 receptor, 10000 nM. Further, the Ki at human orexin-2 receptor [2] stood at 9.9 nM.

Regarding `Cc1c(C#N)ccnc1O[C@@H]1CC[C@@H](C)N(C(=O)c2ccc(Br)nc2-n2nccn2)C1` [Example 89, 2-{[(3R,6R)-1-{[6-Bromo-2-(2H-1,2,3-triazol-2-yl)pyridin-3-yl]carbonyl}-6-methylpiperidin-3-yl]oxy}-3-methylpyridine-4-carbonitrile], the IC50 is 29 nM at human orexin-2 receptor [1] and > 10000 nM on rat orexin-1 receptor. Further, the Ki at human orexin-2 receptor [2] amounted to 5.1 nM.

With `COc1c(C#N)ccnc1O[C@@H]1CC[C@@H](C)N(C(=O)c2ccsc2-c2ncccn2)C1` [Example 108, 3-methoxy-2-({(3R,6R)-6-methyl-1-[(2-pyrimidin-2-ylthiophen-3-yl)carbonyl]piperidin-3-yl}oxy)pyridine-4-carbonitrile], the IC50 on human orexin-2 receptor [1] was 14 nM; at rat orexin-1 receptor it was 713 nM.

Regarding `Cc1c(C#N)ccnc1O[C@@H]1CC[C@@H](C)N(C(=O)c2ccc(OCF)cc2-n2nccn2)C1` [Example 64, 2-{[(3R,6R)-1-{[4-(fluoromethoxy)-2-(2H-1,2,3-triazol-2-yl)phenyl]carbonyl}-6-methylpiperidin-3-yl]oxy}-3-methylpyridine-4-carbonitrile], the IC50 on human orexin-2 receptor [1] was found to be 35 nM; at rat orexin-1 receptor it was 4490 nM. On human orexin-2 receptor [2], the Ki stood at 3.3 nM.

Turning to `Cc1nc(-c2ccccc2C(=O)N2C[C@H](Oc3nccc(C#N)c3C)CC[C@H]2C)no1` [Example 42, 3-methyl-2-{[(3R,6R)-6-methyl-1-{[2-(5-methyl-1,2,4-oxadiazol-3-yl)phenyl]carbonyl}piperidin-3-yl]oxy}pyridine-4-carbonitrile], the values for the IC50 on human orexin-2 receptor [1] and at rat orexin-1 receptor were 12 nM and 776 nM, respectively. On human orexin-2 receptor [2], the Ki came out at 1 nM.

For the compound `Cc1nc(C(=O)N2C[C@H](Oc3nccc(C#N)c3C)CC[C@H]2C)c(-c2ccccc2)s1` [Example 57, 3-methyl-2-({(3R,6R)-6-methyl-1-[(2-methyl-5-phenyl-1,3-thiazol-4-yl)carbonyl]piperidin-3-yl}oxy)pyridine-4-carbonitrile], the IC50 was 23 nM at human orexin-2 receptor [1] and 521 nM on rat orexin-1 receptor. For the same compound, on human orexin-2 receptor [2], the Ki was 1.4 nM.

Consider `Cc1c(C#N)ccnc1O[C@@H]1CC[C@@H](C)N(C(=O)c2ccc(F)cc2-n2nccn2)C1` [Example 9, 2-{[(3R,6R)-1-{[4-fluoro-2-(2H-1,2,3-triazol-2-yl)phenyl]carbonyl}-6-methylpiperidin-3-yl]oxy}-3-methylpyridine-4-carbonitrile], for which the IC50 at human orexin-2 receptor [1] turned out to be 12 nM; at rat orexin-1 receptor it was 1080 nM. The Ki on human orexin-2 receptor [2] amounted to 0.5 nM.

For the compound `Cc1ccc(-n2nccn2)c(C(=O)N2C[C@H](Oc3nccc(C#N)c3C)CC[C@H]2C)c1` [Example 6, 3-methyl-2-{[(3R,6R)-6-methyl-1-{[5-methyl-2-(2H-1,2,3-triazol-2-yl)phenyl]carbonyl}piperidin-3-yl]oxy}pyridine-4-carbonitrile], the IC50 at human orexin-2 receptor [1] came to 7 nM; at rat orexin-1 receptor, 292 nM. On human orexin-2 receptor [2], the Ki was 0.6 nM.

In the case of `Cc1c(C#N)ccnc1O[C@@H]1CC[C@@H](C)N(C(=O)c2c(F)cccc2-n2nccn2)C1` [Example 11, 2-{[(3R,6R)-1-{[2-fluoro-6-(2H-1,2,3-triazol-2-yl)phenyl]carbonyl}-6-methylpiperidin-3-yl]oxy}-3-methylpyridine-4-carbonitrile], the figures for the IC50 on human orexin-2 receptor [1] and at rat orexin-1 receptor were 10 nM and 611 nM, respectively. For the same compound, the Ki at human orexin-2 receptor [2] turned out to be 0.3 nM.

In the case of `COc1c(C#N)ccnc1O[C@@H]1CC[C@@H](C)N(C(=O)c2ccsc2-n2nccn2)C1` [Example 106, 3-methoxy-2-{[(3R,6R)-6-methyl-1-{[2-(2H-1,2,3-triazol-2-yl)thiophen-3-yl]carbonyl}piperidin-3-yl]oxy}pyridine-4-carbonitrile], the IC50 at human orexin-2 receptor [1] was 8 nM; at rat orexin-1 receptor it was 1960 nM.

Turning to `CCc1c(C#N)ccnc1O[C@@H]1CC[C@@H](C)N(C(=O)c2ccccc2-n2nccn2)C1` [Example 93, 3-ethyl-2-{[(3R,6R)-6-methyl-1-{[2-(2H-1,2,3-triazol-2-yl)phenyl]carbonyl}piperidin-3-yl]oxy}pyridine-4-carbonitrile], the IC50 at human orexin-2 receptor [1] came to 8 nM. Moreover, at human orexin-2 receptor [2], the Ki worked out at 0.1 nM.

As for `COc1ccc(C(=O)N2C[C@H](Oc3nccc(C#N)c3C)CC[C@H]2C)c(-c2cnn(C)c2)n1` [Example 80, 2-{[(3R,6R)-1-{[6-methoxy-2-(1-methyl-1H-pyrazol-4-yl)pyridin-3-yl]carbonyl}-6-methylpiperidin-3-yl]oxy}-3-methylpyridine-4-carbonitrile], the IC50 at human orexin-2 receptor [1] came out at 171 nM; at rat orexin-1 receptor, 10000 nM.

Regarding `COc1ccc(C(=O)N2C[C@H](Oc3nccc(C#N)c3OC)CC[C@H]2C)c(-c2ncccn2)n1` [Example 113, 3-methoxy-2-({(3R,6R)-1-[(6-methoxy-2-pyrimidin-2-ylpyridin-3-yl)carbonyl]-6-methylpiperidin-3-yl}oxy)pyridine-4-carbonitrile], the IC50 at human orexin-2 receptor [1] is 108 nM; at rat orexin-1 receptor it was 10000 nM.

In the case of `Cc1c(C#N)ccnc1O[C@@H]1CC[C@@H](C)N(C(=O)c2ccncc2-c2ccccc2)C1` [Example 23, 3-methyl-2-({(3R,6R)-6-methyl-1-[(3-phenylpyridin-4-yl)carbonyl]piperidin-3-yl}oxy)pyridine-4-carbonitrile], on human orexin-2 receptor [1], the IC50 is 69 nM. Also, the Ki on human orexin-2 receptor [2] was 16.6 nM.
